# Assay results reported in paper PMC4841536, “Characterization of the Anti-HCV Activities of the New Cyclophilin Inhibitor STG-175” (PLoS ONE, 2016).
# Legend:
# [1] = test system: HCV (JFH-1) in Huh7.5.1 cells; test: Mono-infection, HCV core ELISA; format: cell-based, hepatitis C virus; settings: both 0.5 and 5 μM, added together with virus, 12 days
# From the text: (§1) For mono-infections: a) human hepatoma Huh7.5.1 cells were infected with HCV (JFH-1) and viral replication was quantified by HCV core ELISA (Ortho HCV antigen ELISA kit; Ortho Clinical Diagnostics, Waco Chemicals, Inc. or HCV Core ELISA, XpressBio); b) sodium-taurocholate co-transporting polypeptide (NTCP)-positive Huh7 cells were infected with hepatitis B virus (HBV) AD38 (produced from HepAD38 cells) and viral replication was quantified by HBV HBeAg ELISA; and c) human (peripheral blood monocytic cells (PBMCs) were infected with HIV-1 (JR-CSF) and viral replication was quantified by HIV-1 capsid/p24 ELISA. PBMCs were isolated as described previously. The Scripps Research Institute Normal Blood Donor Service (TSRI NBDS) provides TSRI investigators who have Human Subjects Committee-approved protocols with a source of normal blood for their research. Donors are assured of a controlled clinical setting for their blood to be drawn by licensed phlebotomists, and investigators are assured that the donors whose specimens they obtain through the service have been screened upon entry into the program and annually thereafter for a CBC, Hepatitis B and C and HIV-1. Hemoglobin determinations at every donation protect the donor from phlebotomy-induced anemia. […]
# [2] = test system: NS5Ai-resistant L31V NS5A Con1 GT1b replicon; test: Electroporated Con1 RNA replication in Huh7.5.1 cells (RT-qPCR), L31V NS5A; format: cell-based; settings: Hepatitis C virus, Huh-7.5.1, 192 h, read-out: EC50 L31V NS5A
# From the text: The GT1b subgenomic firefly luciferase reporter replicon pFK-I389/NS3–3 was provided by R. Bartenschlager. The GT1B subgenomic NS3, NS5A and NS5B mutants were created via homologous recombination using the In-Fusion HD Cloning kit (Clontech) as we described previously. […] The in vitro transcription of wild-type and mutant Con1 RNA was accomplished using the T7 MEGAscript kit (Ambion) by following the manufacturer’s instructions. In vitro-transcribed RNAs were introduced into Huh7.5.1 cells by electroporation. Trypsinized cells were washed twice and resuspended in phosphate-buffered saline (PBS) (calcium-free and magnesium-free) at 1x 10^7 cells per ml. Ten micrograms of RNA for each mutant was mixed with 0.4 mL of cells in a 4-mm cuvette, and a Bio-Rad Gene Pulser system was used to deliver a single pulse at 0.27 kV, 100 ohms, and 960 μF. […] RNA transfection efficiency and HCV subgenomic replication were assessed by reverse transcription-quantitative PCR (RT-qPCR) and presented as genome equivalents (GE) per microgram of total RNA as described previously. We measured by RT-qPCR the replication of wild-type, STG-175-, NS5Ai-, NS3i- and NS5Bi-resistant mutants in the presence of increasing concentrations of SGT-175, daclatasvir, telaprevir, boceprevir and sofosbuvir over a period of 8 days.
# Fig 5 Cross-resistance analyses. […] Data are expressed as log of GE/μg of total RNA. […]
# [3] = test system: HIV-1 (JR-CSF) in activated PBMCs; test: Mono-infection, HIV-1 capsid/p24 ELISA; format: cell-based; settings: added together with virus, 12 days
# From the text: as §1
# [4] = test system: subgenomic Con1 (GT1b) replicon in Huh-7 cells; settings: 0.25, 0.5 or 1 μM, 7 passages with drug then 3 passages without; HCV RNA by RT-qPCR
# Description: Cells were grown until they reached 90% confluence, trypsinized and re-seeded at the same cell concentration in a new 10-cm dish with the same drug concentration. […] Then drugs were removed to allow viral replication rebound to occur. At each passage, sample of cells were collected, RNA extracted according to the manufacturer's instructions and analyzed by RT-PCR for HCV RNA levels.
# Fig 3 Replicon clearance, replication rebound and resistance analyses. […] Then drugs were removed to allow viral replication rebound to occur. At each passage, samples of cells were collected, RNA extracted and analyzed by RT-PCR for HCV RNA levels. B. Emergence of resistance: Con1 replicon Huh-7 cells were passaged 22 times in the absence or presence of STG-175 or selected DAAs. At each passage, sample of cells were collected, RNA extracted and analyzed by RT-PCR for HCV RNA levels. C. […] Data are expressed as number of HCV RNA copies per cell. […] Data are expressed as mean of relative light units and calculated EC50s are presented. […] E. Degree of resistance of D320E and Y321N Con1 variants: Left panel. Wild-type (WT), D320E and D320/Y321N NS5A Con1 RNA were electroporated into Huh7.5.1 cells and replication monitored over 8 days by quantifying the levels of intracellular HCV RNA. Right panel. Same as just above except that increasing concentrations of STG-175 were added at the time of the electroporation. […]
smiles,measurement,setting,value
CC=CCC(C)C(O)C1C(=O)NC(CC)C(=O)N(C)C(CSCCCCO)C(=O)N(C)C(CC(C)(C)O)C(=O)NC(C(C)C)C(=O)N(C)C(CC(C)C)C(=O)NC(C)C(=O)NC(C)C(=O)N(C)C(CC(C)C)C(=O)N(C)C(CC(C)C)C(=O)N(C)C(C(C)C)C(=O)N1C (centres unmarked) [STG-175],HCV infection (HCV core ELISA),[1],totally blocked
same,EC50,[2],15.1 nM
same,HIV-1 infection (HIV-1 capsid ELISA),[3]; 0.5 μM,significantly decreased infection
same,HIV-1 infection (HIV-1 capsid ELISA),[3]; 5 μM,fully blocked
same,viral replication rebound after drug removal,[4],no replication rebound was observed
